The record followed here is ChEMBL document CHEMBL6134906, “Design, Synthesis, and Biological Evaluation of Selective STING Synergists That Enhance cGAMP-STING Pathway Activation without Inherent Agonist Activity” (J Med Chem, 2025).

In general, IC50 refers to the concentration at which inhibition is half-maximal. Lower therefore signals inhibition by little substance.

Experiment [1] deals with THP-1. As to the kind of experiment: Cytotoxicity against human THP-1 cells assessed as cell viability at 100 uM incubated for 48 hrs by CellTiter Glo luminescent cell viability assay relative to control. The conditions noted are these: THP-1, 48 h, read-out: Activity. (Cellular ATP, detected with luciferase, serves as a proxy for viable cell number.)
Experiment [2] addresses Stimulator of interferon genes protein (Homo sapiens, UniProt Q86WV6).

Stimulator of interferon genes protein, sequence (Q86WV6 whole entry): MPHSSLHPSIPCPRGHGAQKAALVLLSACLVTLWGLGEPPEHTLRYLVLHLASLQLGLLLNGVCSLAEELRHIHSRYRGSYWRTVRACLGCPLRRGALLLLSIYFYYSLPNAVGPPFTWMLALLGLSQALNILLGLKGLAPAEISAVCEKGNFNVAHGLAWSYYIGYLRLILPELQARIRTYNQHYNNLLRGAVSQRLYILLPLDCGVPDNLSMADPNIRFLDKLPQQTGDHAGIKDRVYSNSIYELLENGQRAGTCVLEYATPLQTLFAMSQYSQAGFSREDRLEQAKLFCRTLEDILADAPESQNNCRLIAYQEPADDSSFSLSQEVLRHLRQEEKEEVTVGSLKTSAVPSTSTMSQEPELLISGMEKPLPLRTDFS

In the case of `COc1cc2c(=O)c3cccc(C(=O)O)c3[nH]c2c(C)c1C`, the viability at 100 µM in experiment [1] came to 92.1%.
Consider `COc1ccc2c(c1)c(=O)c1ccc(C)c(C)c1n2CC(=O)O`, for which, in experiment [1], the viability at 100 µM worked out at 95.8%. In addition, the IC50 in experiment [2] was > 100 µM.
As for `COc1cc2c(=O)c3c(F)ccc(CC(=O)O)c3[nH]c2c(C)c1C`, the viability at 100 µM in experiment [1] stood at 87.8%.
Still for that read-out and setting: the same measure for `COc1cc2c(=O)c3cc(Cl)cc(CC(=O)O)c3[nH]c2c(C)c1C`: 82%.
For the compound `COc1ccc2c(c1)c(=O)c1cc(OC)c(C)c(C)c1n2CC(=O)OCC(C)(C)C`, the viability at 100 µM in experiment [1] turned out to be 93.3%. Further, the IC50 in experiment [2] is 33.8 µM.
`Cc1ccc2c(=O)c3cc(F)cc(CC(=O)O)c3[nH]c2c1C`: the viability at 100 µM in experiment [1] is 99%. Also, the IC50 in experiment [2] is > 100 µM.
As to `COc1cc2c(=O)c3cc(F)cc(CC(=O)O)c3[nH]c2c(C)c1C`, the viability at 100 µM in experiment [1] stood at 106%.
On the same count and under the same terms, the same measure for `CCOC(=O)Cn1c2ccccc2c(=O)c2cc(OC)c(C)c(C)c21`: 93.5%.
For the compound `COC(=O)Cn1c2ccc(C)cc2c(=O)c2cc(OC)c(C)c(C)c21`, the viability at 100 µM in experiment [1] was determined as 85.7%. The midpoint of inhibition in experiment [2], the IC50, lay at 41.5 µM.
The matching figures for `CCOC(=O)Cn1c2ccc(OC)cc2c(=O)c2ccc(C)c(C)c21`: 99.2% and > 100 µM.
In the case of `CCOC(=O)Cn1c2ccc(OC)cc2c(=O)c2cc(OC)c(C)c(C)c21`, the viability at 100 µM in experiment [1] turned out to be 102%. Further, in experiment [2], the half-maximal inhibitory concentration (IC50) amounted to 26 µM.
For `COc1cc2c(=O)c3cccc(CC(=O)O)c3[nH]c2c(C)c1C` the same measures were 91.4% and 28 µM.
For `COc1cc2c(=O)c3c(Cl)ccc(CC(=O)O)c3[nH]c2c(C)c1C`, the viability at 100 µM in experiment [1] was found to be 95.4%.
`Cc1ccc2c(=O)c3cccc(CC(=O)O)c3[nH]c2c1C`: the viability at 100 µM in experiment [1] stood at 93.4%. For the same compound, in experiment [2], the IC50 is > 100 µM.
The matching figures for `COc1cc2c(=O)c3cc(C)cc(C(=O)O)c3[nH]c2c(C)c1C`: 98.4% and 5.95 µM.
The matching figures for `COc1ccc2[nH]c3c(C)c(C)ccc3c(=O)c2c1`: 98.8% and 13.7 µM.
As for `COc1cc(CC(=O)O)c2[nH]c3c(C)c(C)c(OC)cc3c(=O)c2c1`, the viability at 100 µM in experiment [1] stood at 86.7%. Further, the IC50 in experiment [2] is 11.4 µM.
For the compound `COc1cc2c(=O)c3ccccc3n(CC(=O)O)c2c(C)c1C`, in experiment [1], the viability at 100 µM is 86.9%. Half-maximal inhibition in experiment [2] (IC50) was put at 8.26 µM.
For `COc1ccc2c(c1)c(=O)c1cc(OC)c(C)c(C)c1n2CC(=O)O` the same measures were 83.3% and 11.1 µM.
As to `COc1cc(C(=O)O)c2[nH]c3c(C)c(C)ccc3c(=O)c2c1`, in experiment [1], the viability at 100 µM was found to be 91.3%. Besides, the IC50 in experiment [2] is > 100 µM.
For `Cc1ccc2c(=O)c3cc(Cl)cc(CC(=O)O)c3[nH]c2c1C` the same measures were 83.4% and > 100 µM.
Turning to `Cc1ccc2c(=O)c3c(F)ccc(CC(=O)O)c3[nH]c2c1C`, the viability at 100 µM in experiment [1] stood at 103%. The IC50 in experiment [2] is > 100 µM.
Take `COc1cc2c(=O)c3cc(C)ccc3n(CC(=O)O)c2c(C)c1C`: the viability at 100 µM in experiment [1] came out at 105%. The compound further came in with an IC50 in experiment [2] of 25.1 µM.
The matching figures for `Cc1ccc2c(=O)c3c(Cl)ccc(CC(=O)O)c3[nH]c2c1C`: 87.7% and > 100 µM.
For the compound `COc1cc(C(=O)O)c2[nH]c3c(C)c(C)c(OC)cc3c(=O)c2c1`, the viability at 100 µM in experiment [1] came to 96.5%.
